Data from ChEMBL document CHEMBL1770127, “2-(2-Aminothiazol-4-yl)pyrrolidine-based tartrate diamides as potent, selective and orally bioavailable TACE inhibitors” (Bioorg Med Chem Lett, 2011).

Target: T1, Disintegrin and metalloproteinase domain-containing protein 17 (Homo sapiens, UniProt P78536)
Assay: Inhibition of TACE
Conditions: not given

T1 sequence (P78536 whole entry, the tested form may be a part): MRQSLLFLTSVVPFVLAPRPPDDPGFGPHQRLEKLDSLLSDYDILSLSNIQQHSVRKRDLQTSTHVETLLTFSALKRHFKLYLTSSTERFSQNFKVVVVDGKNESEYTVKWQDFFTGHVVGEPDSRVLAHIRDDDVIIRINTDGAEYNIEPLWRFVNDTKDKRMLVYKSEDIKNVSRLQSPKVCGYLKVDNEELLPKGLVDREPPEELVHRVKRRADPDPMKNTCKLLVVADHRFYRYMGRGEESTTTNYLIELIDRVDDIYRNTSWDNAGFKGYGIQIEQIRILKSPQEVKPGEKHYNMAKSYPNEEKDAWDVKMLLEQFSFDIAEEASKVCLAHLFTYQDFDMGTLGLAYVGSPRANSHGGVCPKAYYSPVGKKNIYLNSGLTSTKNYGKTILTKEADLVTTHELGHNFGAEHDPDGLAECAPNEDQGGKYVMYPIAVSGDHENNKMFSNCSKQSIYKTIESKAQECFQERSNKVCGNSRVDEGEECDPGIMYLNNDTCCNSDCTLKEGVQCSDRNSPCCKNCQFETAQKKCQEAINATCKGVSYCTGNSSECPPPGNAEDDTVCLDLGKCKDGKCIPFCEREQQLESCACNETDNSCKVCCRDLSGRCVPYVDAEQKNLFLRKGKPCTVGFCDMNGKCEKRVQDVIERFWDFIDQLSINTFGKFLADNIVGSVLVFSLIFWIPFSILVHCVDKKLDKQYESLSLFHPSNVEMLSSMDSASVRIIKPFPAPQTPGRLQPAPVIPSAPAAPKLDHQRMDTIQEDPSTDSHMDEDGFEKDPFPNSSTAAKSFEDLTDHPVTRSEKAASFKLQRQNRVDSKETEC

| SMILES | Ki |
| --- | --- |
| CNc1nc([C@H]2C[C@@H]3C[C@@H]3N2C(=O)[C@H](O)[C@@H](O)C(=O)N[C@H](C)c2ccc(-n3cccn3)cc2)cs1 | 531 nM |
| CNc1nc([C@H]2c3cc(F)ccc3CN2C(=O)[C@H](O)[C@@H](O)C(=O)N[C@H](C)c2ccc(-n3cccn3)cc2)cs1 | 16 nM |
| C[C@@H](NC(=O)[C@H](O)[C@@H](O)C(=O)N1CC[C@H](O)C1c1cccc(Cl)c1)c1ccc(-n2cccn2)cc1 (mixture of isomers) | 6.7 nM |
| C[C@@H](NC(=O)[C@H](O)[C@@H](O)C(=O)N1C[C@H](O)CC1c1cccc(Cl)c1)c1ccc(-n2cccn2)cc1 (mixture of isomers) | 7.6 nM |
| C[C@@H](NC(=O)[C@H](O)[C@@H](O)C(=O)N1CCCCC1c1cccc(Cl)c1)c1ccc(-n2cccn2)cc1 (mixture of isomers) | 87 nM |
| C[C@@H](NC(=O)[C@H](O)[C@@H](O)C(=O)N1CCCCC1c1ccc(Cl)cc1)c1ccc(-n2cccn2)cc1 (mixture of isomers) | 22 nM |
| C[C@@H](NC(=O)[C@H](O)[C@@H](O)C(=O)N1CCCCC1c1ccccc1)c1ccc(-n2cccn2)cc1 (mixture of isomers) | 14 nM |
| CNc1nc(C2(C)CCCN2C(=O)[C@H](O)[C@@H](O)C(=O)N[C@H](C)c2ccc(-n3cccn3)cc2)cs1 (mixture of isomers) | 9 nM |

Further lines, results first:

| Ki | SMILES |
| --- | --- |
| 2 nM | CNc1nc([C@H]2CCCN2C(=O)[C@H](O)[C@@H](O)C(=O)N[C@H](C)c2ccc(-n3cccn3)cc2)c(C2CC2)s1 |
| 1 nM | CNc1nc([C@H]2CCCN2C(=O)[C@H](O)[C@@H](O)C(=O)N[C@H](C)c2ccc(-n3cccn3)cc2)c(-c2ccc(F)cc2)s1 |
| 2 nM | CNc1nc([C@H]2CCCN2C(=O)[C@H](O)[C@@H](O)C(=O)N[C@H](C)c2ccc(-n3cccn3)cc2)c(C#N)s1 |
| 6 nM | CCNc1nc([C@H]2C[C@@H](C)CN2C(=O)[C@H](O)[C@@H](O)C(=O)N[C@H](C)c2ccc(-n3cccn3)cc2)cs1 |
| 4 nM | CNc1nc([C@H]2CC(F)(F)CN2C(=O)[C@H](O)[C@@H](O)C(=O)N[C@H](C)c2ccc(-n3cccn3)cc2)cs1 |
| 0.6 nM | CNc1nc([C@H]2C=CCN2C(=O)[C@H](O)[C@@H](O)C(=O)N[C@H](C)c2ccc(-n3cccn3)cc2)cs1 |
| 1 nM | CNc1nc([C@H]2C[C@H]3C[C@H]3N2C(=O)[C@H](O)[C@@H](O)C(=O)N[C@H](C)c2ccc(-n3cccn3)cc2)cs1 |
| 2 nM | CNc1nc([C@H]2c3ccc(F)cc3CN2C(=O)[C@H](O)[C@@H](O)C(=O)N[C@H](C)c2ccc(-n3cccn3)cc2)cs1 |
| 0.5 nM | CCNc1nc([C@H]2c3cnc(N)nc3CN2C(=O)[C@H](O)[C@@H](O)C(=O)N[C@H](C)c2ccc(-n3cccn3)cc2)cs1 |
| 0.9 nM | COc1cc2c(cc1OC)C(c1ccccc1)N(C(=O)[C@H](O)[C@@H](O)C(=O)N[C@H](C)c1ccc(-n3cccn3)cc1)CC2 (mixture of isomers) |

Target: T1, Disintegrin and metalloproteinase domain-containing protein 17
Assay: Inhibition of TACE by cell based assay
Conditions: not given

| SMILES | IC50 |
| --- | --- |
| CNc1nc([C@H]2CCCN2C(=O)[C@H](O)[C@@H](O)C(=O)N[C@H](C)c2ccc(-n3cccn3)cc2)c(S(C)(=O)=O)s1 | 720 nM |
| CNc1nc([C@H]2c3cc(F)ccc3CN2C(=O)[C@H](O)[C@@H](O)C(=O)N[C@H](C)c2ccc(-n3cccn3)cc2)cs1 | 384 nM |
| CNc1nc(C2(C)CCCN2C(=O)[C@H](O)[C@@H](O)C(=O)N[C@H](C)c2ccc(-n3cccn3)cc2)cs1 (mixture of isomers) | 13800 nM |

More lines, now with the values ahead:

| IC50 | SMILES |
| --- | --- |
| 2570 nM | CNc1nc([C@H]2CCCN2C(=O)[C@H](O)[C@@H](O)C(=O)N[C@H](C)c2ccc(-n3cccn3)cc2)c(C2CC2)s1 |
| 3240 nM | CNc1nc([C@H]2CCCN2C(=O)[C@H](O)[C@@H](O)C(=O)N[C@H](C)c2ccc(-n3cccn3)cc2)c(-c2ccc(F)cc2)s1 |
| 3040 nM | CNc1nc([C@H]2CCCN2C(=O)[C@H](O)[C@@H](O)C(=O)N[C@H](C)c2ccc(-n3cccn3)cc2)c(C#N)s1 |
| 4040 nM | CCNc1nc([C@H]2C[C@@H](C)CN2C(=O)[C@H](O)[C@@H](O)C(=O)N[C@H](C)c2ccc(-n3cccn3)cc2)cs1 |
| 2770 nM | CNc1nc([C@H]2CC(F)(F)CN2C(=O)[C@H](O)[C@@H](O)C(=O)N[C@H](C)c2ccc(-n3cccn3)cc2)cs1 |
| 1340 nM | CNc1nc([C@H]2C=CCN2C(=O)[C@H](O)[C@@H](O)C(=O)N[C@H](C)c2ccc(-n3cccn3)cc2)cs1 |
| 707 nM | CNc1nc([C@H]2C[C@H]3C[C@H]3N2C(=O)[C@H](O)[C@@H](O)C(=O)N[C@H](C)c2ccc(-n3cccn3)cc2)cs1 |
| 288 nM | CNc1nc([C@H]2c3ccc(F)cc3CN2C(=O)[C@H](O)[C@@H](O)C(=O)N[C@H](C)c2ccc(-n3cccn3)cc2)cs1 |
| 257 nM | CCNc1nc([C@H]2c3cnc(N)nc3CN2C(=O)[C@H](O)[C@@H](O)C(=O)N[C@H](C)c2ccc(-n3cccn3)cc2)cs1 |

System: not listed separately
Assay: AUC in Sprague-Dawley rat at 10 mg/kg, po measured within 6 hrs after post-dosing by LC/MS/MS analysis
Assay type: ADME, organism-based
Design: time < 6 hr, dose 10 mg/kg, route oral
Conditions: plasma

| SMILES | AUC at 6 h |
| --- | --- |
| CNc1nc([C@H]2c3cc(F)ccc3CN2C(=O)[C@H](O)[C@@H](O)C(=O)N[C@H](C)c2ccc(-n3cccn3)cc2)cs1 | 0.237 µM·h |
| C[C@@H](NC(=O)[C@H](O)[C@@H](O)C(=O)N1CC[C@H](O)C1c1cccc(Cl)c1)c1ccc(-n2cccn2)cc1 (mixture of isomers) | 4.76 µM·h |
| C[C@@H](NC(=O)[C@H](O)[C@@H](O)C(=O)N1C[C@H](O)CC1c1cccc(Cl)c1)c1ccc(-n2cccn2)cc1 (mixture of isomers) | 3.91 µM·h |
| CNc1nc(C2(C)CCCN2C(=O)[C@H](O)[C@@H](O)C(=O)N[C@H](C)c2ccc(-n3cccn3)cc2)cs1 (mixture of isomers) | 2.44 µM·h |

More lines, now with the values ahead:

| AUC at 6 h | SMILES |
| --- | --- |
| 11.4 µM·h | CNc1nc([C@H]2CCCN2C(=O)[C@H](O)[C@@H](O)C(=O)N[C@H](C)c2ccc(-n3cccn3)cc2)c(C2CC2)s1 |
| 0.154 µM·h | CNc1nc([C@H]2CCCN2C(=O)[C@H](O)[C@@H](O)C(=O)N[C@H](C)c2ccc(-n3cccn3)cc2)c(C#N)s1 |
| 5.62 µM·h | CCNc1nc([C@H]2C[C@@H](C)CN2C(=O)[C@H](O)[C@@H](O)C(=O)N[C@H](C)c2ccc(-n3cccn3)cc2)cs1 |
| 1.42 µM·h | CNc1nc([C@H]2CC(F)(F)CN2C(=O)[C@H](O)[C@@H](O)C(=O)N[C@H](C)c2ccc(-n3cccn3)cc2)cs1 |
| 1.81 µM·h | CNc1nc([C@H]2C=CCN2C(=O)[C@H](O)[C@@H](O)C(=O)N[C@H](C)c2ccc(-n3cccn3)cc2)cs1 |
| 0.925 µM·h | CNc1nc([C@H]2C[C@H]3C[C@H]3N2C(=O)[C@H](O)[C@@H](O)C(=O)N[C@H](C)c2ccc(-n3cccn3)cc2)cs1 |
| 1.24 µM·h | COc1cc2c(cc1OC)C(c1ccccc1)N(C(=O)[C@H](O)[C@@H](O)C(=O)N[C@H](C)c1ccc(-n3cccn3)cc1)CC2 (mixture of isomers) |
